Activity calls are given as the source filed them. The calls are words filed in the database; no cut-off is given here.
Key:
[1] = organism: Mus musculus; test: animal or person; conditions: NMRI
Description: Antipsychotic activity in NMRI mouse assessed as reduction in phencyclidine-induced locomotor activity administered 30 mins prior to testing measured for 60 mins

[2] = organism: Mus musculus; conditions: in vivo, sc, 1 h
Description: Toxicity in sc dosed NMRI mouse assessed as cataleptogenic potential administered 30 mins prior to testing measured every 15 mins for 60 mins by horizontal bar test

[3] = organism: Mus musculus; conditions: in vivo, 0.5 h
Description: Sedative activity in NMRI mouse assessed as reduction in spontaneous locomotor activity administered 30 mins prior to testing

[4] = organism: Mus musculus; test: animal or person; conditions: NMRI; remark: listed apart in the source
Description: Antipsychotic activity in NMRI mouse assessed as reduction in methamphetamine-induced locomotor activity administered 30 mins prior to testing measured for 60 mins

[5] = molecular target: D(3) dopamine receptor (Homo sapiens, UniProt P35462); test: biochemical
Description: Displacement of [3H]7OH-DPAT from dopamine D3 receptor expressed in Sf9 cells by scintillation spectrometry

[6] = molecular target: T1, 5-hydroxytryptamine receptor 1A (Rattus norvegicus, UniProt P19327); test: biochemical
T1 sequence (P19327 whole entry): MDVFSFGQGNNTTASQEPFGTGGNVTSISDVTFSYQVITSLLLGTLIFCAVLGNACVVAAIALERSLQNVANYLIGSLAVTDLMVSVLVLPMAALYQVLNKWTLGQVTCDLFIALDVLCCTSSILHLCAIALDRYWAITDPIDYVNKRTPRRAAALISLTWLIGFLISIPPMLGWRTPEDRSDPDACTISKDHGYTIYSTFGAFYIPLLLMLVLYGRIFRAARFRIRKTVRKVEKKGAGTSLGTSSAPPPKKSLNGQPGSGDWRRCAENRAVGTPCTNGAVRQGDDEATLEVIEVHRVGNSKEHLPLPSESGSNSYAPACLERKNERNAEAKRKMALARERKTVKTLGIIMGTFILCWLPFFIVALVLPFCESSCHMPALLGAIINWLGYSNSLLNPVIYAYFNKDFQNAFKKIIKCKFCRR
Description: Displacement of [3H]8OH-DPAT from 5HT1A receptor in CRL:CD(SD)BR-COBS rat hippocampus by scintillation spectrometry

[7] = molecular target: D(1A) dopamine receptor (Rattus norvegicus) (UniProt P18901); test: Displacement of [3H]SCH23390 from dopamine D1 receptor in CRL:CD(SD)BR-COBS rat striatum at 100 uM by scintillation spectrometry
[8] = molecular target: 5-hydroxytryptamine receptor 2A (Rattus norvegicus, UniProt P14842)
Description: Displacement of [3H]ketanserin from 5HT2A receptor in CRL:CD(SD)BR-COBS rat cortex by scintillation spectrometry

[9] = molecular target: Voltage-gated inwardly rectifying potassium channel KCNH2 (Homo sapiens, UniProt Q12809)
Description: Binding affinity to human ERG expressed in HEK293 cells by whole cell patch clamp method

[10] = molecular target: D(1A) dopamine receptor (Rattus norvegicus, UniProt P18901)
D(1A) dopamine receptor, sequence (P18901 whole entry): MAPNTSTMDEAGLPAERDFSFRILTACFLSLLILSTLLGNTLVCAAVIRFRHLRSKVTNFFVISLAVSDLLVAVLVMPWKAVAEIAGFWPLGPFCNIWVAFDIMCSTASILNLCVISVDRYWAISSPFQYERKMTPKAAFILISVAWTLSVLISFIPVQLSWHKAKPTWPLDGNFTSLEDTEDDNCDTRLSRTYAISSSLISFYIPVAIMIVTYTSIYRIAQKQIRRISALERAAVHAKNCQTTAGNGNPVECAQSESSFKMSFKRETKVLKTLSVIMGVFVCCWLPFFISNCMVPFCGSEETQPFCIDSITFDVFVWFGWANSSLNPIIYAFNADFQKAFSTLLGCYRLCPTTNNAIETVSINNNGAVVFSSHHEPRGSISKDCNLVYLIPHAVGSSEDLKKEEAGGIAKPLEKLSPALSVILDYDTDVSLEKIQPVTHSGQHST
Description: Displacement of [3H]SCH23390 from dopamine D1 receptor in CRL:CD(SD)BR-COBS rat striatum by scintillation spectrometry

5-hydroxytryptamine receptor 2A, sequence (P14842 whole entry): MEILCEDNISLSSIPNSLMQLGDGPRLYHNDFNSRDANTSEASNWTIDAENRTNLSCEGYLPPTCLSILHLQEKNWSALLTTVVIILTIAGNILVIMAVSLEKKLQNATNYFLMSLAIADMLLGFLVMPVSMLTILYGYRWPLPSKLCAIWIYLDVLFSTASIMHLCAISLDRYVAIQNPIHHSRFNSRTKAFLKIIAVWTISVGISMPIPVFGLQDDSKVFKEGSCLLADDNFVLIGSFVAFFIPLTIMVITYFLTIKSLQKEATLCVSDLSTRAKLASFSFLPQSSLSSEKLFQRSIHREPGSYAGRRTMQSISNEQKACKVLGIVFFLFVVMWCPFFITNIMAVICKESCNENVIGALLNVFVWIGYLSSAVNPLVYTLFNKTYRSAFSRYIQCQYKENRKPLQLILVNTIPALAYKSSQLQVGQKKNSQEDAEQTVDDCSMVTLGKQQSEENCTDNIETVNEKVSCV
D(3) dopamine receptor, sequence (P35462 whole entry): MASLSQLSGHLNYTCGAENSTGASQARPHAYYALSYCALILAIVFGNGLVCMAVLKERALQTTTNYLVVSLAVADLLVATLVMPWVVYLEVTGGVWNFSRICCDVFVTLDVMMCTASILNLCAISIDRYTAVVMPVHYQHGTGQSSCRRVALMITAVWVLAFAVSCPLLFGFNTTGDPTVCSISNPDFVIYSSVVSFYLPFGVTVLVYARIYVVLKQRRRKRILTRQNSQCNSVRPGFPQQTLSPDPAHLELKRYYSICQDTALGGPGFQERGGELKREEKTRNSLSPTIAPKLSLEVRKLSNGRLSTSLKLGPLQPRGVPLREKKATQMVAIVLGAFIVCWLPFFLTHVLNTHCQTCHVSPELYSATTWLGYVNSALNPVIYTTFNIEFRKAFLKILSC
Voltage-gated inwardly rectifying potassium channel KCNH2, sequence (Q12809 whole entry): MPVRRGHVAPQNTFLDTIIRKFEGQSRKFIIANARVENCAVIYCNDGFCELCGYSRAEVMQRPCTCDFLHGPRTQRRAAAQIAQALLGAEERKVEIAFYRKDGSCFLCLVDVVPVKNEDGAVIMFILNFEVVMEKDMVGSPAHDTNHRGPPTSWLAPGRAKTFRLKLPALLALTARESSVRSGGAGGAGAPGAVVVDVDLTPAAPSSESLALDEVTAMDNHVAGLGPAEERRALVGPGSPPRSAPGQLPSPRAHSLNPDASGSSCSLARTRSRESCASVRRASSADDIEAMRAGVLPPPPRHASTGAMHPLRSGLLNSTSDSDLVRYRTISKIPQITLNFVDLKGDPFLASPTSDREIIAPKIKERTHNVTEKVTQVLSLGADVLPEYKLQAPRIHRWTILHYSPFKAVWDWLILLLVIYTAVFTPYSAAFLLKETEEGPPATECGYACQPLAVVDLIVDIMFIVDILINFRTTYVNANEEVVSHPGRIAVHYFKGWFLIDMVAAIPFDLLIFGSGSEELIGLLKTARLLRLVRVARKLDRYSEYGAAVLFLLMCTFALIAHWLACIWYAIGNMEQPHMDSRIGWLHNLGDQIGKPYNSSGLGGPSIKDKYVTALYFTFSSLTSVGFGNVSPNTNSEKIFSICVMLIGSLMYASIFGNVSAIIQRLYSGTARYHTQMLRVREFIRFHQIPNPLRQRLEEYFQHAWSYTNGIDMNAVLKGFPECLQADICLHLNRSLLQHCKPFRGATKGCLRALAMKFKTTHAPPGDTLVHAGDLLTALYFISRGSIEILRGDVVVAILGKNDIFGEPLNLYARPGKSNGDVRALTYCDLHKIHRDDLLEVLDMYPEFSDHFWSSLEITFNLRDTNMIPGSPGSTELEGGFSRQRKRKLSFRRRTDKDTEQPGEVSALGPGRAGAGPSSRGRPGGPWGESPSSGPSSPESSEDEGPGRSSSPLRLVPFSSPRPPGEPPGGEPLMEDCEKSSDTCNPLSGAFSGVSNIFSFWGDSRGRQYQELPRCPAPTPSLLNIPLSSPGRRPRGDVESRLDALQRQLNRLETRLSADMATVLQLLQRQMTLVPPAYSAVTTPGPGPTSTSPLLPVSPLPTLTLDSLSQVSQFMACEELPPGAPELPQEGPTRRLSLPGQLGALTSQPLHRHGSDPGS
D(1A) dopamine receptor (Rattus norvegicus), sequence (P18901 whole entry): as the sequence (P18901 whole entry) above

| Ki [5] | Activity [7] | Ki [8] | Ki [10] | Compound | ED50 [1] | ED50 [2] | ED50 [3] | ED50 [4] | Ki [6] | Ki [9] |
| --- | --- | --- | --- | --- | --- | --- | --- | --- | --- | --- |
| – | – | – | – | O=C(NCCCCN1CCN(c2ccc(Cl)cc2Cl)CC1)c1cc2ccccc2[nH]1 | > 30 mg/kg | – | – | – | – | – |
| – | – | – | – | CN1CCN(C2=Nc3cc(Cl)ccc3Nc3ccccc32)CC1 [CLOZAPINE] | 1.1 mg/kg | > 30 mg/kg | 2.4 mg/kg | 2.5 mg/kg | – | – |
| 8.2 nM | inactive | 127 nM | – | Clc1cccc(N2CCN(CCCCOc3ccc4cccnc4c3)CC2)c1Cl | – | – | – | – | 4 nM | – |
| 32.9 nM | – | 123 nM | – | Clc1cccc(N2CCN(CCCCOc3cc4ccccc4cn3)CC2)c1Cl | – | – | – | – | 24.2 nM | 160 nM |
| – | – | – | – | Cc1cc2c(s1)Nc1ccccc1N=C2N1CCN(C)CC1 [OLANZAPINE] | – | – | – | – | – | 36000 nM |
| 3.2 nM | – | 300 nM | 4320 nM | O=C1c2cc3ccccc3n2CCN1CCCCN1CCN(c2ccc(Cl)cc2Cl)CC1 | – | – | – | – | – | – |
| 33.5 nM | – | 164 nM | > 10000 nM | COc1cccc2cc3n(c12)CCN(CCCCNC(=O)C1=Cc2ccccc2CN1)C3 | – | – | – | – | 28 nM | 1840 nM |
| 0.54 nM | – | – | > 10000 nM | N#Cc1cccc(N2CCN(CCCCNC(=O)c3cc4ccccc4o3)CC2)c1 | – | – | – | – | – | 390 nM |
| 3.7 nM | – | 389 nM | > 10000 nM | N#Cc1cccc(N2CCN(CCCCN3CCn4c(cc5ccccc54)C3=O)CC2)c1 | – | – | – | – | – | – |
| 0.27 nM | – | 23.4 nM | 5500 nM | O=C(NCCCCN1CCN(c2cccc(Cl)c2)CC1)c1cc2ccccc2cn1 | 6.7 mg/kg | – | 14 mg/kg | 4.2 mg/kg | 14.7 nM | 300 nM |
| – | – | – | – | O=C(CCCN1CCC(O)(c2ccc(Cl)cc2)CC1)c1ccc(F)cc1 [HALOPERIDOL] | 0.09 mg/kg | 0.19 mg/kg | 0.08 mg/kg | – | – | – |
| 0.38 nM | – | – | – | O=C(NCCCCN1CCN(c2ccc(Cl)cc2Cl)CC1)c1cc2cc(Cl)ccc2[nH]1 | > 30 mg/kg | – | – | – | – | – |

| Compound | Ki [5] | Activity [7] | Ki [8] | Ki [10] | ED50 [1] | ED50 [2] | ED50 [3] | ED50 [4] | Ki [6] | Ki [9] |
| --- | --- | --- | --- | --- | --- | --- | --- | --- | --- | --- |
| COc1cccc2c1C1CCN(CCCCNC(=O)C3=Cc4ccccc4CN3)CC1=N2 (stereo not given) | 6 nM | – | 149 nM | > 10000 nM | – | – | – | – | 118 nM | – |
| Clc1cccc(N2CCN(CCCCCOc3cc4ccccc4cn3)CC2)c1Cl | 0.14 nM | – | 57 nM | – | > 10 mg/kg | – | > 30 mg/kg | > 10 mg/kg | 18 nM | 210 nM |
| O=C1c2cc3ccccc3n2CCN1CCCCN1CCN(c2cccc(Cl)c2Cl)CC1 | 0.105 nM | – | 83 nM | 4370 nM | > 3 mg/kg | – | > 30 mg/kg | 3.7 mg/kg | 9.3 nM | 200 nM |
| O=C(NCCCCN1CCN(c2cccc(Cl)c2Cl)CC1)c1cc2ccccc2cn1 | 0.099 nM | – | 41 nM | 4600 nM | – | – | – | – | 5 nM | 200 nM |
| COc1cccc2cc3n(c12)CCN(CCCCN1CCn2c(cc4ccccc42)C1=O)C3 | 8.6 nM | – | 200 nM | > 10000 nM | – | – | – | – | 33 nM | 260 nM |

Source: ChEMBL document CHEMBL1139353, “Discovery of a new class of potential multifunctional atypical antipsychotic agents targeting dopamine D3 and serotonin 5-HT1A and 5-HT2A receptors: design, synthesis, and effects on behavior” (J Med Chem, 2009)
